From US12161621B2, “Methods for fructokinase mediation of alcohol craving and alcohol induced liver disease” (REGENTS OF THE UNIVERSITY OF COLORADO, A BODY CORPORATE, priority 2018, dated 2024)

Tested on: wild type mice
Experiment: two-bottle choice alcohol preference with fructokinase inhibitor
Type: in vivo
Details: wild type mice on 10 percent alcohol vs water, fructokinase inhibitor administered for 4 weeks, FIG. 2G
From the text: FIG. 2C provides delta FosB expression and densitometry in nucleus accumbens (Nacc) of wild type mice exposed to 0%, 3%, 6% and 10% alcohol for 10 weeks. FIG. 2D includes delta FosB expression and densitometry in nucleus accumbens (Nacc) of wild type and fructokinase knockout mice exposed to 10% alcohol for 10 weeks. […] FIG. 2F provides evidence of conditioned place preference in wild type and fructokinase knockout mice injected alcohol (2 g/kg). Data represents preference shifts for the paired section after vs before conditioning (time spent in the paired chamber posttest-pretest). […] One Way ANOVA with Tukey post hoc analysis; n=5 mice per group. Further evidence that KHK may mediate alcohol preference is shown by a conditioned place preference study, in which mice are injected with either alcohol or saline then placed in a distinctly different section of the apparatus for 4 alcohol and 4 saline trials. The mice were then tested in an alcohol-free state to determine whether they preferred the section of the apparatus that was paired with alcohol. […] It was also determined that preference for alcohol could be blocked by administering a fructokinase inhibitor (i.e., osthol) for 4 weeks to wild type mice on 10 percent alcohol. […] Thus, these studies show the novel finding that blocking fructokinase can block the craving for alcohol.

COc1ccc2ccc(=O)oc2c1CC=C(C)C [osthol]
reduced preference for alcohol in a two bottle preference system: 50%
